Reference: patent publication US12115373B2, “Methods for reducing the risk of strokes by pharmacotherapy to reduce the number and duration of atrial fibrillations” (Xyra, LLC, priority 2022, dated 2024)

Experiments:
[1] = system: patients with paroxysmal or persistent AFib; experiment: Clinical trial evaluation of budiodarone, 6 patients, pacemaker monitoring, two-week dose periods (Example 2); format: in vivo; set-up: Duration of episodes, Mean / Duration of sinus rhythm, Mean: unit not given here; details: for # of AFib episodes, Mean / Duration of episodes, Mean / Duration of sinus rhythm, Mean / Longest AFib Episode - hrs: two-week period, 6 patients
Procedure: This example is a clinical trial evaluation of budiodarone in treating 6 patients with paroxysmal or persistent AFib who previously evidenced episodes of long duration AFib (greater than 24 hours). In this example, the patients' heart rhythm was continuously monitored over a two-week period with a pacemaker, and were treated with different doses of budiodarone. The purpose of this example is to establish whether budiodarone reduces long duration AFib lasting more than 24 hours.

[2] = system: patients with either paroxysmal or persistent AFib; experiment: Clinical trial: episodes of longer duration AFib (>24 hrs), pacemaker monitoring (Example 3); format: in vivo; details: 2-week period; for Episodes of AFib > 24 hrs: Duration / Episodes of AFib > 24 hrs: Number: 6 patients
Procedure: (§1) This example is a clinical trial evaluation of budiodarone in treating 6 patients with either paroxysmal or persistent AFib who previously evidenced episodes of long duration AFib (greater than 24 hrs). In this example, the patients' heart rhythms were continuously monitored over a twelve-week period with a pacemaker (surgically invasive procedure) and were treated with different doses (2 weeks each) of budiodarone. In addition, during this trial, the patients were under continuous monitoring and constant clinician supervision.
The purpose of this example is to establish whether budiodarone treatment can reduce longer duration AFib (AFib episodes lasting more than 24 hours) in a clinical study setting and using a pacemaker to evaluate heart rhythm.
“Number” indicates the number of longer duration episodes of AFib (i.e., having a duration of greater than 24 hours). “Duration” indicates the amount of time during the 2-week period spent in the longer duration indicated in hours and a percentage relative to the baseline measurement. As per the above results, 200 mg b.i.d. was sufficient to treat all patients in the study by eliminating the number of episodes of AFib lasting over 24 hours. In this case, dose escalation was not required to improve patient efficacy as the 200 mg bid doses of budiodarone were sufficient to eliminate these long duration episodes of AFib.

[3] = system: patients with either paroxysmal or persistent AFib; experiment: Clinical trial: episodes of long duration AFib (>1 hr), pacemaker monitoring (Example 5); format: in vivo; details: 2 week period; for Episodes of AFib > 1 hrs: Duration / Episodes of AFib > 1 hrs: Number: 6 patients
Procedure: as §1, with “1 hour).” for “24 hrs).”
The purpose of this example is to establish whether budiodarone reduces long duration AFib (duration >1 hr) in a clinical study setting using a pacemaker to evaluate the heart rhythm.
As above, “Number” indicates a number of long duration AFib episodes during the 2 week period, and “Duration” indicates a number of hours during the 2 week period sent in the long duration AFib episodes

patients = experiment: Clinical trial: longest duration episode of AFib at each dose, per subject (Example 7); format: in vivo; details: for longest duration episode of AFib / longest duration episode of AFib, Total: 2 Weeks; for longest duration episode of AFib, Total: Total of subjects
Text: This example is a clinical trial evaluation of 6 patients treated with different doses of budiodarone each for a two-week period to determine the longest duration episode of AFib experienced at each dose. In this example, the patients' heart rhythms were continuously monitored over a twelve-week period with a pacemaker.

[4] = in vivo; cited from earlier work

For `CC[C@H](C)OC(=O)Cc1oc2ccccc2c1C(=O)c1cc(I)c(OCCN(CC)CC)c(I)c1` [budiodarone, (S)-sec-butyl2-(3-(4-(2-(diethylamino)ethoxy)-3,5-diiodobenzoyl)benzofuran-2-yl)acetate], the “# of AFib episodes, Mean” value ([1]; 200 mg bid) was 31, the “Duration of episodes, Mean” value ([1]; 200 mg bid) was 1.7 and the “Duration of sinus rhythm, Mean” value ([1]; 200 mg bid) was 131. The “Longest AFib Episode - hrs” value ([1]; 200 mg bid) was 7 h, the “# of AFib episodes, Mean” value ([1]; 400 mg bid) was 37 and the “Duration of episodes, Mean” value ([1]; 400 mg bid) was 0.6. The “Duration of sinus rhythm, Mean” value ([1]; 400 mg bid) was 48, the “Longest AFib Episode - hrs” value ([1]; 400 mg bid) was 13 h and the “# of AFib episodes, Mean” value ([1]; 600 mg bid) was 42. The “Duration of episodes, Mean” value ([1]; 600 mg bid) was 0.1, the “Duration of sinus rhythm, Mean” value ([1]; 600 mg bid) was 103 and the “Longest AFib Episode - hrs” value ([1]; 600 mg bid) was 7 h. The “# of AFib episodes, Mean” value ([1]; 800 mg bid) was 24, the “Duration of episodes, Mean” value ([1]; 800 mg bid) was 0.5 and the “Duration of sinus rhythm, Mean” value ([1]; 800 mg bid) was 42. The “Longest AFib Episode - hrs” value ([1]; 800 mg bid) was 5 h, the “episodes of long duration AFib lasting more than 24 hours eliminated as compared to Baseline” value ([1]; all dose levels (200-800 mg bid)) was “over 70%” and the “reduction in AFib burden (number of episodes over a 2-week period times the average duration)” value ([1]; vs baseline, dose levels 200-800 mg bid) was “more than 64%”. For the same compound, the “Episodes of AFib > 24 hrs: Duration, percentage relative to the baseline” value (shortened to “Episodes … percentage relative to the baseline”) ([2]; 200 mg bid) was “(0%)”, the “Episodes of AFib > 24 hrs: Duration” value ([2]; 200 mg bid) was 0 h and the “Episodes of AFib > 24 hrs: Number” value ([2]; 200 mg bid) was 0. The “Episodes … percentage relative to the baseline” value ([2]; 400 mg bid) was “(0%)”, the “Episodes of AFib > 24 hrs: Duration” value ([2]; 400 mg bid) was 0 h and the “Episodes of AFib > 24 hrs: Number” value ([2]; 400 mg bid) was 0. The “Episodes … percentage relative to the baseline” value ([2]; 600 mg bid) was “(0%)”, the “Episodes of AFib > 24 hrs: Duration” value ([2]; 600 mg bid) was 0 h and the “Episodes of AFib > 24 hrs: Number” value ([2]; 600 mg bid) was 0. For the same compound, the “Episodes … percentage relative to the baseline” value ([2]; 800 mg bid) was “(0%)”, the “Episodes of AFib > 24 hrs: Duration” value ([2]; 800 mg bid) was 0 h and the “Episodes of AFib > 24 hrs: Number” value ([2]; 800 mg bid) was 0. The “Episodes of AFib > 1 hrs: Duration, percent of Off Drug (baseline)” value (“Episodes … percent of Off Drug (baseline)” for short) ([3]; 200 mg bid) was “(10%)”, the “Episodes of AFib > 1 hrs: Duration” value ([3]; 200 mg bid) was 60 h and the “Episodes of AFib > 1 hrs: Number” value ([3]; 200 mg bid) was 22. The “Episodes … percent of Off Drug (baseline)” value ([3]; 400 mg bid) was “(9.3%)”, the “Episodes of AFib > 1 hrs: Duration” value ([3]; 400 mg bid) was 56 h and the “Episodes of AFib > 1 hrs: Number” value ([3]; 400 mg bid) was 12. For the same compound, the “Episodes … percent of Off Drug (baseline)” value ([3]; 600 mg bid) was “(4.3%)”, the “Episodes of AFib > 1 hrs: Duration” value ([3]; 600 mg bid) was 26 h and the “Episodes of AFib > 1 hrs: Number” value ([3]; 600 mg bid) was 6. The “Episodes … percent of Off Drug (baseline)” value ([3]; 800 mg bid) was “(2.5%)”, the “Episodes of AFib > 1 hrs: Duration” value ([3]; 800 mg bid) was 15 h and the “Episodes of AFib > 1 hrs: Number” value ([3]; 800 mg bid) was 6. The “dose required to eliminate all episodes of long duration AFib (>5 hrs)” value (patients; Subject 1) was 800 mg bid, the “longest duration episode of AFib” value (patients; Subject 1, 200 mg bid) was 5 h and the “longest duration episode of AFib” value (patients; Subject 1, 400 mg bid) was 8 h. The “longest duration episode of AFib” value (patients; Subject 1, 600 mg bid) was 7 h, the “longest duration episode of AFib” value (patients; Subject 1, 800 mg bid) was 3 h and the “longest duration episode of AFib” value (patients; Subject 2, 200 mg bid) was 6 h. For the same compound, the “longest duration episode of AFib” value (patients; Subject 2, 400 mg bid) was 13 h, the “longest duration episode of AFib” value (patients; Subject 2, 600 mg bid) was 0 h and the “longest duration episode of AFib” value (patients; Subject 2, 800 mg bid) was 5 h. For the same compound, the “longest duration episode of AFib” value (patients; Subject 3, 200 mg bid) was 7 h, the “longest duration episode of AFib” value (patients; Subject 4, 200 mg bid) was 0 h and the “longest duration episode of AFib” value (patients; Subject 4, 400 mg bid) was 2 h. The “longest duration episode of AFib” value (patients; Subject 4, 600 mg bid) was 2 h, the “longest duration episode of AFib” value (patients; Subject 4, 800 mg bid) was 1 h and the “longest duration episode of AFib” value (patients; Subject 5, 200 mg bid) was 3 h. For the same compound, the “longest duration episode of AFib” value (patients; Subject 5, 400 mg bid) was 2 h, the “longest duration episode of AFib” value (patients; Subject 5, 600 mg bid) was 0.8 h and the “longest duration episode of AFib” value (patients; Subject 5, 800 mg bid) was 1.6 h. The “dose required to eliminate all episodes” value (patients; Subject 6) was 600 mg bid, the “longest duration episode of AFib” value (patients; Subject 6, 200 mg bid) was 6 h and the “longest duration episode of AFib” value (patients; Subject 6, 400 mg bid) was 10 h. For the same compound, the “longest duration episode of AFib” value (patients; Subject 6, 600 mg bid) was 0 h, the “longest duration episode of AFib” value (patients; Subject 6, 800 mg bid) was 3 h and the “dose sufficient to eliminate all episodes of long duration AFib (>5 hrs)” value (patients; Subjects 4 and 5) was 200 mg twice a day. The “longest duration episode of AFib, Total” value (patients; 200 mg bid) was 21 h, the “longest duration episode of AFib, Total” value (patients; 400 mg bid) was 33 h and the “longest duration episode of AFib, Total” value (patients; 600 mg bid) was 7.8 h. For the same compound, the “longest duration episode of AFib, Total” value (patients; 800 mg bid) was 13.6 h and the “increase in the QT interval” value [4] was “without a significant increase in the QT interval”.
